# Assay results reported in ChEMBL document CHEMBL1201862, “PubChem BioAssay data set” (2004).
# The source made the active and inactive calls.
# Experiments:
# [1] = alpha-synuclein stem-loop luciferase translation blockers – H4 neuroglioma cells, luminescence, confirmation (AID 1988); type: functional, cell-based
# Protein S100-A4 = Protein S100-A4 (Homo sapiens, UniProt P26447); experiment: human S100A4 peptide interaction inhibition curves – biochemical, fluorescence polarization, cherry-picked hits, dose response (AID 687001); type: functional
# ORF 73 = ORF 73 (Human herpesvirus 8, UniProt O40947); experiment: KSHV LANA DNA-binding disruption – biochemical, fluorescence polarization, cherry-picked samples, dose response (AID 504725); parameters: species or system Human gammaherpesvirus 8;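 further: fluorescence polarization of a labeled DNA duplex reporting LANA DNA binding; potency is for inhibitors that block LANA binding to the DNA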
# ORF 73, sequence (O40947 whole entry): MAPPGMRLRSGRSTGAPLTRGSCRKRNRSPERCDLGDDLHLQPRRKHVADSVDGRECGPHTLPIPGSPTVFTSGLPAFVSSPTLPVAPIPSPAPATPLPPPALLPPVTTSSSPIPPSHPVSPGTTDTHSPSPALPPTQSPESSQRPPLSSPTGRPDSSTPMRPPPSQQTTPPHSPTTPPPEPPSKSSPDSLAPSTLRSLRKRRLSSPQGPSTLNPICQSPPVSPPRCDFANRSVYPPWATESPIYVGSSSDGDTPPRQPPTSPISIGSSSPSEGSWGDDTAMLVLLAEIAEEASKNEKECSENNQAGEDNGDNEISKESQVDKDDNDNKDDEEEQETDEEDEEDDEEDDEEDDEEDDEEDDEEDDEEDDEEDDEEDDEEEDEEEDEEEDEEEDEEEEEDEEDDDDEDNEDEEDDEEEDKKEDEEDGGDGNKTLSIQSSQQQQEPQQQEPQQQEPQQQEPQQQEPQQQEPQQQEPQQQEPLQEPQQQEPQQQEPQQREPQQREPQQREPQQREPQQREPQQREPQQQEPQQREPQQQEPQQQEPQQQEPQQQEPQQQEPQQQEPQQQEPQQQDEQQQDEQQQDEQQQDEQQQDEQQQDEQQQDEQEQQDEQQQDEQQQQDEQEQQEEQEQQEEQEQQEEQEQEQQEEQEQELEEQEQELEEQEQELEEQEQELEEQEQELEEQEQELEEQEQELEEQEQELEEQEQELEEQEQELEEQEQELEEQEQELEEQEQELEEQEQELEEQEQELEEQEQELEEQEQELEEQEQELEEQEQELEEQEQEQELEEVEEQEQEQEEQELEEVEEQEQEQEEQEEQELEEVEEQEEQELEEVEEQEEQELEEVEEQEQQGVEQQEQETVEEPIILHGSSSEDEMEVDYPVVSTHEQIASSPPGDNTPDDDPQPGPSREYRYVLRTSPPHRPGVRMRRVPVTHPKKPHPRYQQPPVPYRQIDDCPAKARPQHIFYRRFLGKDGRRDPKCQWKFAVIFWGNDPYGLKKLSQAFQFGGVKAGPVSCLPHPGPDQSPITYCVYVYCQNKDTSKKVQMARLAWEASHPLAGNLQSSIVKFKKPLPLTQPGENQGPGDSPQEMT
# HeLa = experiment: viability loss in HeLa cells – cell-based, 24 h, cherry-picked samples, cytotoxicity control, dose response (AID 504726); type: functional; details: Homo sapiens;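 further: potency for cytotoxicity as loss of luminescence signal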
# [2] = luciferase reporter signal suppression in cells – H4 neuroglioma cells, luminescence, dose response (AID 1990); type: functional, cell-based
# Paired box protein Pax-8 = Paired box protein Pax-8 (Homo sapiens, UniProt Q06710); experiment: PAX8 transcriptional activity inhibition in RMG-I – RMG-I cells, luciferase, cherry-pick, dose response (AID 687027); type: functional, cell-based;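 further: luciferase reporter driven by Pax8 target thyroperoxidase promoter measured by SteadyGlo luminescence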
# [3] = Luminescence Cell-Based Dose Response HTS to Identify Inhibitors of 5'UTR Stem-Loop Driven Prion Protein mRNA Translation in H4 Neuroglioblastoma Cells. [Related pubchem assays: 1827 (Project Summary), 1813 (Primary HTS)]; type: functional
# [4] = target: T1, Polyadenylate-binding protein 1 (Homo sapiens, UniProt P11940); experiment: blockers of PABP interaction with poly(A) – biochemical, fluorescence polarization, […] (AID 2014)
# T1 sequence (P11940 whole entry): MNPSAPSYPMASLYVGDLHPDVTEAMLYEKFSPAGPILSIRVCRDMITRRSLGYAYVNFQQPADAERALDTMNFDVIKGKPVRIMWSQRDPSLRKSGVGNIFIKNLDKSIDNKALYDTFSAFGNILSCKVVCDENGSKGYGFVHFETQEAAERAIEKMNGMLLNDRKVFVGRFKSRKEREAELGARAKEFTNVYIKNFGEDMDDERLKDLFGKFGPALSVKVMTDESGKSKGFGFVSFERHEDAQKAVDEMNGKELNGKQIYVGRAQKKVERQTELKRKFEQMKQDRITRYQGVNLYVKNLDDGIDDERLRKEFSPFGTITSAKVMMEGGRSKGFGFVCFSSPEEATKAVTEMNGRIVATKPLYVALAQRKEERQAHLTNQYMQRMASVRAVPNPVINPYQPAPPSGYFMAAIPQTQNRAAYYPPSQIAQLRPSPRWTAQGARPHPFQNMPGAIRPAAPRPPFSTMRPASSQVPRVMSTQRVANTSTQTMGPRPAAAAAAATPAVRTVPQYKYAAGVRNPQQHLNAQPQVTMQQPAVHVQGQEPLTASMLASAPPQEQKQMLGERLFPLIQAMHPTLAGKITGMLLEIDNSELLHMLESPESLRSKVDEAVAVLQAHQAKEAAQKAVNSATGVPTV
# [5] = target: T2, Eukaryotic translation initiation factor 4H (Homo sapiens, UniProt Q15056); experiment: eIF4H binding inhibition – biochemical, uHTS, fluorescence polarization, translation initiation inhibitor project, primary screen (AID 2012)
# [6] = target: T2, Eukaryotic translation initiation factor 4H; experiment: inhibitors of translation initiation factor eIF4H – SAR follow-up (AID 435011); type: functional
# [7] = target: T1, Polyadenylate-binding protein 1; experiment: PABP inhibition in translation initiation, SAR follow-up (AID 435018); type: functional
# [8] = target: NACHT, LRR and PYD domains-containing protein 1 (Homo sapiens, UniProt Q9C000); experiment: NALP1 inhibitors in yeast, dose response, luminescent (AID 488860); type: functional
# Saccharomyces cerevisiae = experiment: S. cerevisiae Caspase-1/ASC signal blockers IC50, NALP1 inhibitor project selectivity test (AID 488863); type: functional, organism-based
# [9] = target: T3, Sentrin-specific protease 1 (Homo sapiens, UniProt Q9P0U3); experiment: Dose response confirmation of small molecule inhibitors of the catalytic domain of the SUMO protease, SENP1 in a FRET assay.; type: functional; details: read-out: IC50_Mean
# T3 sequence (Q9P0U3 whole entry): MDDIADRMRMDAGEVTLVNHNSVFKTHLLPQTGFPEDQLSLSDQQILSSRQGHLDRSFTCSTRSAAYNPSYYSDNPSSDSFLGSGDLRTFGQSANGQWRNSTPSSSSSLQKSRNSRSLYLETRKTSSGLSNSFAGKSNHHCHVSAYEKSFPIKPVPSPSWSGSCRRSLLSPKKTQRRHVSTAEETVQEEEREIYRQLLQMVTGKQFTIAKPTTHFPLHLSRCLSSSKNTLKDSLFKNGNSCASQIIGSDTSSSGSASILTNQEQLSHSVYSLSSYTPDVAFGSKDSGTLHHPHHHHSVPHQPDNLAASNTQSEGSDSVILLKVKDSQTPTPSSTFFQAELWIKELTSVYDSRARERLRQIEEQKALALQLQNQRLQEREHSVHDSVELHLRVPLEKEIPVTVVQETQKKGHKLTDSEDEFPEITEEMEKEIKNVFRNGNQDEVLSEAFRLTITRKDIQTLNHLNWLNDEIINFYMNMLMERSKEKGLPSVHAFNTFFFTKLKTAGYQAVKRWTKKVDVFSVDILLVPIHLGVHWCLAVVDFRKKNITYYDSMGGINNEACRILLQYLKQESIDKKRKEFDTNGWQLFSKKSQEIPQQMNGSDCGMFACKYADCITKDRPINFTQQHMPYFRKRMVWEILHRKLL
# Protein Rev = Protein Rev (Human immunodeficiency virus type 1 group M subtype B (isolate HXB2)(HIV-1), UniProt P04618); experiment: blockers of HIV Rev/RRE RNA complex – biochemical, fluorescence polarization, HIV-1, dose response (AID 434976); parameters: species or system Human immunodeficiency virus 1
# [10] = target: T3, Sentrin-specific protease 1; experiment: SENP1 catalytic domain blockers, concentration series – biochemical, kinetic FRET, dose response (AID 651697); type: functional; details: read-out: IC50_Mean
# [11] = target: Female germline-specific tumor suppressor gld-1 (Caenorhabditis elegans, UniProt Q17339); experiment: blockers of GLD-1/TGE RNA complex formation – biochemical, fluorescence polarization, C. elegans, dose response (AID 2802);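 further: fluorescence polarization of labeled TGE RNA bound by purified gld-1 protein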
# [12] = target: T1, Polyadenylate-binding protein 1; experiment: MLLE domain peptide-binding blockers, IC50 – biochemical, fluorescence polarization, FITC-PAM2 peptide, dose response (AID 602259); type: functional; details: read-out: IC50_Mean
# [13] = target: T1, Polyadenylate-binding protein 1; experiment: MLLE binding blockers, Cy5 peptide tracer – biochemical, fluorescence polarization, Cy5-PAM2 peptide, secondary, miRNA deadenylation inhibitor project, dose response (AID 602260); type: functional; details: read-out: IC50_Mean
# Caspase-6 = target: T4, Caspase-6 (Homo sapiens, UniProt P55212); experiment: inhibition of CASP6 peptide cleavage – biochemical, VEID-R110 fluorescence, cherry-pick, dose response (AID 720632)
# T4 sequence (P55212 whole entry): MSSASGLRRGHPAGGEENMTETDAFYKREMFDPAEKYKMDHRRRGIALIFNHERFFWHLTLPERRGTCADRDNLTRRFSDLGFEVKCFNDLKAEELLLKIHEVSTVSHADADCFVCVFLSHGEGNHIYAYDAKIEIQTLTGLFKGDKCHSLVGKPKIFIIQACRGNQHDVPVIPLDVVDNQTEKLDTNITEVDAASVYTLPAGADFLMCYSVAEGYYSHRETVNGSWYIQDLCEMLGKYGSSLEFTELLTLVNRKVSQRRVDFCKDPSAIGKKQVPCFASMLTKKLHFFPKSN
# [14] = target: T5, Eukaryotic translation initiation factor 2-alpha kinase 3 (Homo sapiens, UniProt Q9NZJ5); experiment: Dose response cell-based high-throughput screening assay to measure PERK inhibition. [Related pubchem assays: 1416 ]; type: functional
# T5 sequence (Q9NZJ5 whole entry): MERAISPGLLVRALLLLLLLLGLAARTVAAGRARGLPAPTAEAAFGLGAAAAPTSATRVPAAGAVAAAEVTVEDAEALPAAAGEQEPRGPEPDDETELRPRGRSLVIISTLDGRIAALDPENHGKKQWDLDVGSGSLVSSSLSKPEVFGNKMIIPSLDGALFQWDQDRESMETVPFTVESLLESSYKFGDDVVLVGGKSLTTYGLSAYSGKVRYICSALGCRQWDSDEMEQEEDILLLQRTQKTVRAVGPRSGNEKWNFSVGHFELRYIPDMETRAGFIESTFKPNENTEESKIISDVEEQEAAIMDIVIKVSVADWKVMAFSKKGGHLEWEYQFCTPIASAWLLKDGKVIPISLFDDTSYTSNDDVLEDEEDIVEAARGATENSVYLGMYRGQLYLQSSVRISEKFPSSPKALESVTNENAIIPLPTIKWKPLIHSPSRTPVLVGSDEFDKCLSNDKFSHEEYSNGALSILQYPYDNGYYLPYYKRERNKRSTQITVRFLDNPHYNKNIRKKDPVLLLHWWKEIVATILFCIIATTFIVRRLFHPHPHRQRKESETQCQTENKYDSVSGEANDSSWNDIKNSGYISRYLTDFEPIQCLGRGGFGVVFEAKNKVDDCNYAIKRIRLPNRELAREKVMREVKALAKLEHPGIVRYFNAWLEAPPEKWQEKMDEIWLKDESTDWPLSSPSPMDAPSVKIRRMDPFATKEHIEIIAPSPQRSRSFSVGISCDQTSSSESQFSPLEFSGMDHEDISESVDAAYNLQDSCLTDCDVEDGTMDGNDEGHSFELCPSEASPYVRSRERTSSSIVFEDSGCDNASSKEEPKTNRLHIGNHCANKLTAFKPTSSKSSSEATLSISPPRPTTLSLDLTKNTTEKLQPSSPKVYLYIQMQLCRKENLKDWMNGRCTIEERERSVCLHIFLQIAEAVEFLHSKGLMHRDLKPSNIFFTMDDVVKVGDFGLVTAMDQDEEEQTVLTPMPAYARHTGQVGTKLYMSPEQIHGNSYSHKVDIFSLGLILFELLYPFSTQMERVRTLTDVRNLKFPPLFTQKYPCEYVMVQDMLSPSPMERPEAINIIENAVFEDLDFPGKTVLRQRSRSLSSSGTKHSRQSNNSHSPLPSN
# [15] = target: T5, Eukaryotic translation initiation factor 2-alpha kinase 3; experiment: Counterscreen assay for PERK inhibitors: Dose response cell-based high throughput screening assay to measure inhibition of PERK at 6 hours. [Related pubchem assays: 1522, 1416 ]; type: functional
# Protein skinhead-1 = target: T6, Protein skinhead-1 (Caenorhabditis elegans, UniProt P34707); type: functional
# T6 sequence (P34707 whole entry): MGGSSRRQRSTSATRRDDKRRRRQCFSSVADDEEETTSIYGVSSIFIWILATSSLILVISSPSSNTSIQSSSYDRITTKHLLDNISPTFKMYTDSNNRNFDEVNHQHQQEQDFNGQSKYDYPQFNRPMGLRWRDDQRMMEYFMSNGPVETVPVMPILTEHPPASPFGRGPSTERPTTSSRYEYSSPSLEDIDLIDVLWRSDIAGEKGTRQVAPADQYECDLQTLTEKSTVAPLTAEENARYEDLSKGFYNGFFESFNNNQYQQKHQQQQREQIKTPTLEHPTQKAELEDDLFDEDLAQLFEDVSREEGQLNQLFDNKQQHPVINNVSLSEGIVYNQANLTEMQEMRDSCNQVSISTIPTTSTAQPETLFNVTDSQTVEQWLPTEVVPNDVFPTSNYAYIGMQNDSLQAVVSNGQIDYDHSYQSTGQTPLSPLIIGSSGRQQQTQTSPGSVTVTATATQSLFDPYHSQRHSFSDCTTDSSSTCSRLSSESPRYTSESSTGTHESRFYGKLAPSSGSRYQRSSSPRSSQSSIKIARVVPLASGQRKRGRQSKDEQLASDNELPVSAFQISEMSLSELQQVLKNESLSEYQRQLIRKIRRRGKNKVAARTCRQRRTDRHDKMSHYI
# [16] = target: Acyl-homoserine lactone acylase PvdQ (Pseudomonas aeruginosa (strain LESB58), UniProt Q9I194); experiment: PvdQ acylase enzyme activity blockers – biochemical, fluorescence, plate reader and imaging, cherry-picks, dose response (AID 493231)
# Acyl-homoserine lactone acylase PvdQ, sequence (Q9I194 24-193 limits assumed): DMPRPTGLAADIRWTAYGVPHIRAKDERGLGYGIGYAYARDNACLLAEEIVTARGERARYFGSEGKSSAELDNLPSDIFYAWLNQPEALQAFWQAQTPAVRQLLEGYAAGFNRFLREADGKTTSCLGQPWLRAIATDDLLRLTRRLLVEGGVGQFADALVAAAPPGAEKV
# Acyl-homoserine lactone acylase PvdQ, sequence (Q9I194 217-762 limits assumed): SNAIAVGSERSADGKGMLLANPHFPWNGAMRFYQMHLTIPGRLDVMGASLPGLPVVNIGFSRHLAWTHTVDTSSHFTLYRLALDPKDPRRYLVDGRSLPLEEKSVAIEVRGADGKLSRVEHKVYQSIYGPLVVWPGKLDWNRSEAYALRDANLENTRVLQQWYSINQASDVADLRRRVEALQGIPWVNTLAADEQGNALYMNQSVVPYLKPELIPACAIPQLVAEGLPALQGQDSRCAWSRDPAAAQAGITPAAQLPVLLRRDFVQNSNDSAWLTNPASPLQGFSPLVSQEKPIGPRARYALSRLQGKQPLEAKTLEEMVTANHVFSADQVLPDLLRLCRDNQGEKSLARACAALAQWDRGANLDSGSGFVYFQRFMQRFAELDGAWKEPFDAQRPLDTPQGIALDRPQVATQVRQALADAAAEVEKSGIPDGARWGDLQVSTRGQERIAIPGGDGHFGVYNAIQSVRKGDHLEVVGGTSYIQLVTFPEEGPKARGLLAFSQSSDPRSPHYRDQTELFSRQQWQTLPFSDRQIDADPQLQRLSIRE
# Mu-type opioid receptor = Mu-type opioid receptor (Homo sapiens, UniProt P35372); experiment: SAR Analysis of Antagonists of the MOR Receptor using an Image-Based Assay - Set 3. [Related pubchem assays (depositor defined):AID1777, AID1785, AID1786, AID1966, AID2133, AID2136, AID2284, AID2285, AID2420]; type: functional
# [17] = target: T7, Kappa-type opioid receptor (Homo sapiens, UniProt P41145); experiment: SAR analysis of small molecule antagonists of the kappa opioid receptor via a luminescent beta-arrestin assay - Set 6. [Related pubchem assays (depositor defined):AID1777, AID1778, AID1785, AID1786, AID1966, AID2133, AID2136, AID2285]; type: functional
# T7 sequence (P41145 whole entry): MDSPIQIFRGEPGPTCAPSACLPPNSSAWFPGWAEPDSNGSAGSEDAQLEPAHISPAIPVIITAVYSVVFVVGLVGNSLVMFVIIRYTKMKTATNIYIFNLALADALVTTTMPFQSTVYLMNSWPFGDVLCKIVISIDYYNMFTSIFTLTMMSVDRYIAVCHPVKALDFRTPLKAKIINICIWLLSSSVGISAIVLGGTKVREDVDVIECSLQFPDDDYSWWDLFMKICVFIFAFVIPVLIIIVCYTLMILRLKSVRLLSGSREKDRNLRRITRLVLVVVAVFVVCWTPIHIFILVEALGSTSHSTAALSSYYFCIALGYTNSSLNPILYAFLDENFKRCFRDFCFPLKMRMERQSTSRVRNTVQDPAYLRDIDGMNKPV
# [18] = target: Delta-type opioid receptor (Homo sapiens, UniProt P41143); experiment: SAR Analysis of Antagonists of the DOR Receptor using an Image-Based Assay - Set 3. [Related pubchem assays (depositor defined):AID1777, AID1785]; type: functional;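 further: U2OS cells expressing DOR1 and beta-arrestin GFP stimulated with 100 nM SNC80; imaging of GFP-tagged beta-arrestin moving into spots after receptor activation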
# Delta-type opioid receptor, sequence (P41143 whole entry): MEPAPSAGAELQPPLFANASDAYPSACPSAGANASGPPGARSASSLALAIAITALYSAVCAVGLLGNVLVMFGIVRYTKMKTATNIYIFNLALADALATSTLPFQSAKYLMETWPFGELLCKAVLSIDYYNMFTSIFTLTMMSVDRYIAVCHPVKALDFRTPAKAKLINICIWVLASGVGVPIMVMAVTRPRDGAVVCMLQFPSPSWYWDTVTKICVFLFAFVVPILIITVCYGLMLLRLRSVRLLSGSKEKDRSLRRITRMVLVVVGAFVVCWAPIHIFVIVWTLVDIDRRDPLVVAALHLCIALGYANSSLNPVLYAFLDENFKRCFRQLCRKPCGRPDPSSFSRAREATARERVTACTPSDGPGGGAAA
# [19] = target: T7, Kappa-type opioid receptor; experiment: SAR analysis of small molecule antagonists of the kappa opioid receptor via a luminescent beta-arrestin assay - Set 4. [Related pubchem assays (depositor defined):AID1777, AID1778, AID1785, AID1786, AID1966, AID2133, AID2136, AID2285]; type: functional
# [20] = target: T7, Kappa-type opioid receptor; experiment: SAR analysis of Antagonists of the Kappa Opioid Receptor (KOR) using an Image-Based Assay - Set 4. [Related pubchem assays (depositor defined):AID1777, AID1785]; type: functional
# [21] = target: Melanin-concentrating hormone receptor 1 (Homo sapiens, UniProt Q99705); experiment: Late-stage fluorescence-based counterscreen for antagonists of the G-protein coupled receptor 7 (GPR7): cell-based dose response assay to identify antagonists of the melanin-concentrating hormone receptor 1 (MCHR1). [Related pubchem assays (depositor defined):AID1861, AID1880, AID1952, AID2148, AID2251, AID2257, AID485339]; type: functional;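 further: stimulated with 30 nM MCH peptide agonist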
# Melanin-concentrating hormone receptor 1, sequence (Q99705 whole entry): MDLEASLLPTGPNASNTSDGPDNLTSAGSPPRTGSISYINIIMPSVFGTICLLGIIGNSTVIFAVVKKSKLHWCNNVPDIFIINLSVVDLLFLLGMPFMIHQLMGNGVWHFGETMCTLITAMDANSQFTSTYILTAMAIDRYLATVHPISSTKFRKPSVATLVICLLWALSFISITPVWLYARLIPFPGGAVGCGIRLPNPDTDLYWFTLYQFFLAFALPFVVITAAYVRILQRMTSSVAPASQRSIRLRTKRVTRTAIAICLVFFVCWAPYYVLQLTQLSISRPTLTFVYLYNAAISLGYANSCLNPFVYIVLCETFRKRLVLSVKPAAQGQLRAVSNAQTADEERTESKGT
# Beta-galactosidase = Beta-galactosidase (Escherichia coli, UniProt Q8VNN2); experiment: detection-enzyme interference by beta-gal modulators – biochemical, E. coli enzyme, set 3, artefact control for CCR6 antagonist project, dose response (AID 504712); type: functional
# [22] = target: C-C chemokine receptor type 6 (Homo sapiens, UniProt P51684); experiment: antagonism of CCR6 beta-arrestin recruitment – cell-based, luminescent beta-arrestin readout, dose response (AID 504728); type: functional
# cells [23] = type: functional, cell-based
# cells [24] = type: functional, cell-based; remark: listed apart in the source
# Vero = experiment: cells; type: functional; details: Chlorocebus sabaeus
smiles,measurement,setting,value
COc1cccc2c1C(=O)c1c(O)c3c(c(O)c1C2=O)C[C@](O)(C(C)=O)C[C@H]3O[C@@H]1C[C@@H](N)[C@@H](O)[C@@H](C)O1,EC50,[1],< 0.1 µM (active)
same,AC50,Protein S100-A4,0.29 µM (active)
same,AC50,ORF 73,3.01 µM (active)
same,AC50,HeLa,3.2 µM (active)
same,EC50,[2],< 0.1 µM (active)
same,AC50,Paired box protein Pax-8,2.84 µM (active)
same,EC50,[3],0.102 µM (active)
COc1cc(C)cc(C(=O)O)c1C1=C(O)C(=O)c2c(O)cccc2C1=O,IC50,[4],5.41 µM (active)
same,IC50,[5],5.43 µM (active)
CCc1nnc(NC(=O)CSc2ccc(-c3ccco3)nn2)s1,IC50,[6],9.04 µM (active)
same,IC50,[7],64.4 µM (active)
COc1ccccc1N1CCN(CCCCCCOc2ccc(F)cc2)CC1,IC50,[8],9.66 µM (active)
same,IC50,Saccharomyces cerevisiae,13.2 µM (active)
O=C1C=C(O)c2cccc3cccc1c23,IC50,[9],8.55 µM (active)
same,IC50,Protein Rev,13.9 µM (not active)
same,IC50,[10],13.1 µM (active)
same,IC50,[11],6.13 µM (active)
same,IC50,[12],34.5 µM (inactive)
same,IC50,[13],33.1 µM (inactive)
CCOC(=O)c1sc(NC(=O)C2C3C=CC(C3)C2C(=O)O)nc1C (stereo not given),AC50,Caspase-6,11.1 µM (active)
same,EC50,[14],> 55.7 µM (not active)
same,EC50,[15],> 55.7 µM (not active)
Clc1ccc(-c2nnc(-c3ccco3)o2)cc1,IC50,Protein skinhead-1,17.2 µM (active)
same,AC50,[16],24.3 µM (active)
CC(C)N(CCNC(=O)c1ccc(CNS(=O)(=O)c2ccc3ccccc3c2)cc1)Cc1ccccc1,IC50,Mu-type opioid receptor,> 32 µM (inactive)
same,IC50,[17],5.52 µM (active)
same,IC50,[18],31.3 µM (inactive)
same,IC50,[19],2.33 µM (active)
same,IC50,[20],0.16 µM (active)
O=C(C1CCCCN1Cc1ccccc1)N1CCN(c2ccc([N+](=O)[O-])cc2)CC1 (stereo not given),IC50,[21],11.3 µM (inactive)
Cc1cc(C)nc(N/N=C/C2=C(O)CC(c3ccc(F)cc3)CC2=O)n1 (stereo not given),IC50,Beta-galactosidase,> 66.6 µM (inactive)
same,IC50,[22],> 66.6 µM (inactive)
same,EC50,cells [23],15.9 µM (active)
same,EC50,cells [24],> 350 µM (not active)
same,CC50,Vero,> 25 µM (active)
